According to patent US8927587B2, “Chemical compounds” (Pfizer Limited, priority 2012, dated 2015):

Each compound was assayed against T1, hNav1.8 (Homo sapiens, UniProt Q9Y5Y9) (assay: hNav1.8 whole-cell patch-clamp electrophysiology (conventional or PatchXpress 7000) in stably transfected HEK cells). Conditions: estimated IC50 calculated from single point % inhibition; HEK cells expressing hNav1.8; 8 sec prepulse to V1/2, 20 msec step to 0 mV; average of replicates; read-out: Nav1.8 EIC50.
T1 construct: host or cells: HEK cells, stably transfected
T1 sequence (Q9Y5Y9 whole entry): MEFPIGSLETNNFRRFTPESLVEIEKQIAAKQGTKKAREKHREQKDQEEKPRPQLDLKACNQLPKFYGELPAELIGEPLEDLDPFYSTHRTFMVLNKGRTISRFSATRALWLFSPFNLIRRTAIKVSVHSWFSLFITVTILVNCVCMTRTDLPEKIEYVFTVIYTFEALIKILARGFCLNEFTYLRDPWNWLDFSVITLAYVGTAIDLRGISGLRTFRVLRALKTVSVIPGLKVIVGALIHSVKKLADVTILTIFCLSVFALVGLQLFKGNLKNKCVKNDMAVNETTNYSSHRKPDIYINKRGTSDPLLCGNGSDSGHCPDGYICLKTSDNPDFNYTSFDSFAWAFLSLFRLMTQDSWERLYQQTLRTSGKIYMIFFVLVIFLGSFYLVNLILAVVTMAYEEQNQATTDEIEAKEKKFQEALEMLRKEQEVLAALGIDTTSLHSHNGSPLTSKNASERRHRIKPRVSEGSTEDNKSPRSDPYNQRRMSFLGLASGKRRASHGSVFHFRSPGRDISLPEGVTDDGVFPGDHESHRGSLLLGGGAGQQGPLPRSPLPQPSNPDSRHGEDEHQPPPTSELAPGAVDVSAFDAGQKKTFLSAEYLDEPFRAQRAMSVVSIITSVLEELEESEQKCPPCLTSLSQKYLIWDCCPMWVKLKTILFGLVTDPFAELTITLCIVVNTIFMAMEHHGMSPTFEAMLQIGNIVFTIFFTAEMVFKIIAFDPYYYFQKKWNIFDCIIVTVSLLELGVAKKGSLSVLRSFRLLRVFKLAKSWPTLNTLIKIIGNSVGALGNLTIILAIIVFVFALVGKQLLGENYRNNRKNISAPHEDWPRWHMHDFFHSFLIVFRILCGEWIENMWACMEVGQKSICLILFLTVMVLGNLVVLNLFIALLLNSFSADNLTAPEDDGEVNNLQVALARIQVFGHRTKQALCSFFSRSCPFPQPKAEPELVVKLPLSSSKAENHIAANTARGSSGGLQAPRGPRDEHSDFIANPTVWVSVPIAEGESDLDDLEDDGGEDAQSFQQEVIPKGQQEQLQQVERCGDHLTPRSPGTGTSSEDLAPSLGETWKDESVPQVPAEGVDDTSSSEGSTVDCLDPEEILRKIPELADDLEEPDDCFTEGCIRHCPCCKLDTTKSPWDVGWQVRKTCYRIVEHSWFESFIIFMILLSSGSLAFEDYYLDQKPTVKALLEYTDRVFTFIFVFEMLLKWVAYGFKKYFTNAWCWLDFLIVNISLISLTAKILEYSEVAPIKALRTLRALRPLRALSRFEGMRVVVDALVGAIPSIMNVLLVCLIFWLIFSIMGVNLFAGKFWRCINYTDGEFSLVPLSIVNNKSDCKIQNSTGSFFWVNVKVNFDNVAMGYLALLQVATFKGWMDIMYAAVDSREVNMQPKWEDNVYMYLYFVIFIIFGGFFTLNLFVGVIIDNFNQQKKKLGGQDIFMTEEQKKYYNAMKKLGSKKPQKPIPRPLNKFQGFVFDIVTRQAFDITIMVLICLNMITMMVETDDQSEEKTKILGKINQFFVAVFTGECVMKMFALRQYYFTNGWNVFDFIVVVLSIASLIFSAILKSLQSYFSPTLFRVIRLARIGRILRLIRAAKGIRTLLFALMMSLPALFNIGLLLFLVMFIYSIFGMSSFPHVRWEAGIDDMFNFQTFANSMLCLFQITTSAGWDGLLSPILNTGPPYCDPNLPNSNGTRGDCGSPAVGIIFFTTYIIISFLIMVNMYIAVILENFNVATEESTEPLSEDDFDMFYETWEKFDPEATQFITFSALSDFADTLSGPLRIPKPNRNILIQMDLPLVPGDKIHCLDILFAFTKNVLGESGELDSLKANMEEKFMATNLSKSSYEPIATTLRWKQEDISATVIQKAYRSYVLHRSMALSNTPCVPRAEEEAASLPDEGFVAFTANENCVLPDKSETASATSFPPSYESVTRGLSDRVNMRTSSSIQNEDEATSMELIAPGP
Assay type: cell-based
Excerpt: The ability of the benzimidazole derivatives of the formula (I) to inhibit the Nav1.8 channel may be measured using the assay described below.
HEK cells stably transfected with hNav1.8, purchased from Millipore (Millipore Corp., Billerica, Mass. 01821), were maintained according to manufacturer's instructions. For electrophysiological studies, cells were removed from the culture flask by brief trypsinization and re-plated at low density onto glass cover slips. Cells were typically used for electrophysiological experiments within 24 to 72 h after plating.
Cover slips containing HEK cells expressing hNav1.8 were placed in a bath on the stage of an inverted microscope and perfused (approximately 1 ml/min) with extracellular solution of the following composition: 138 mM NaCl, 2 mM CaCl2, 5.4 mM KCl, 1 mM MgCl2, 10 mM glucose, and 10 mM HEPES, pH 7.4, with NaOH. […] The osmolarity of the extracellular and intracellular solutions was 300 mOsm/kg and 295 mOsm/kg, respectively. All recordings were made at room temperature (22-24° C.) using AXOPATCH 200B amplifiers and PCLAMP software (Axon Instruments, Burlingame, Calif.).
hNav1.8 currents in HEK cells were measured using the whole-cell configuration of the patch-clamp technique (Hamill et al., 1981). Uncompensated series resistance was typically 2 to 5 mega ohms and >85% series resistance compensation was routinely achieved. As a result, voltage errors were negligible and no correction was applied. Current records were acquired at 20 to 50 KHz and filtered at 5 to 10 KHz.
HEK cells stably transfected with hNav1.8 were viewed under Hoffman contrast optics and placed in front of an array of flow pipes emitting either control or compound-containing extracellular solutions. All compounds were dissolved in dimethyl sulfoxide to make 10 mM stock solutions, which were then diluted into extracellular solution to attain the final concentrations desired.
The voltage-dependence of inactivation was determined by applying a series of depolarizing prepulses (8 sec long in 10 mV increments) from a negative holding potential. The voltage was then immediately stepped to 0 mV to assess the magnitude of the sodium current. Currents elicited at 0 mV were plotted as a function of prepulse potential to allow estimation of the voltage at which 50% of the channels were inactivated (midpoint of inactivation or V1/2). Compounds were tested for their ability to inhibit hNav1.8 sodium channels by activating the channel with a 20 msec voltage step to 0 mV following an 8 second conditioning prepulse to the empirically determined V1/2. Compound effect (% inhibition) was determined by difference in current amplitude before and after application of test compounds. For ease of comparison, “estimated IC50” values were calculated from single point electrophysiology data by the following equation, (tested concentration, uM)×(100-% inhibition/% inhibition). Inhibition values<20% and >80% were excluded from the calculation.
In some cases electrophysiological assays were conducted with PatchXpress 7000 hardware and associated software (Molecular Devices Corp). All assay buffers and solutions were identical to those used in conventional whole-cell voltage clamp experiments described above. hNav1.8 cells were grown as above to 50%-80% confluency and harvested by trypsinization. Trypsinized cells were washed and resuspended in extracellular buffer at a concentration of 1×10^6 cells/ml. The onboard liquid handling facility of the PatchXpress was used for dispensing cells and application of test compounds. Determination of the voltage midpoint of inactivation was as described for conventional whole-cell recordings. Cells were then voltage-clamped to the empirically determined V1/2 and current was activated by a 20 msec voltage step to 0 mV.
Estimated IC50 values for the compounds of formula (I) exemplified above are as follows. […]

C[C@H](N)c1nc2cc(C(C)(C)C)ccc2[nH]1 [Example 7, (1S)-1-(5-tert-Butyl-1H-benzimidazol-2-yl)ethanamine] and C[C@@H](N)c1nc2cc(C(C)(C)C)ccc2[nH]1 [Example 10, (1R)-1-(5-tert-Butyl-1H-benzimidazol-2-yl)ethanamine] are within 1.5-fold of each other in IC50: 439 nM for the first, 607 nM for the second.

Going from CCC[C@H](N)c1nc2cc(-c3ccc(C#N)cc3)ccc2[nH]1 [Example 147, 4-{2-[(1S)-1-Aminobutyl]-1H-benzimidazol-5-yl}benzonitrile] to CCCC[C@@H](N)c1nc2cc(-c3ccc(C#N)cc3)ccc2[nH]1 [Example 58, 4-{2-[(1R)-1-aminopentyl]-1H-benzimidazol-5-yl}benzonitrile], the IC50 rises from 110 nM to 537 nM (4.9-fold).

First: CC(C)(C)c1ccc2[nH]c([C@@H]3C[C@@H](O)CN3)nc2c1 [Example 26, (3R,5S)-5-(5-tert-Butyl-1H-benzimidazol-2-yl)pyrrolidin-3-ol]
Second: C[C@@H](O)[C@@H](N)c1nc2cc(C(C)(C)C)ccc2[nH]1 [Example 18, (1S,2R)-1-Amino-1-(5-tert-butyl-1H-benzimidazol-2-yl)propan-2-ol]
The IC50 of the first is 15-fold lower: 31.5 nM for the first, 487 nM for the second.

First: CO[C@H](C)[C@H](N)c1nc2cc(C3CCCC3)ccc2[nH]1 [Example 145, (1R,2R)-1-(5-Cyclopentyl-1H-benzo[d]imidazol-2-yl)-2-methoxypropan-1-amine]
Second: CC(C)(N)c1nc2cc(C3CCCCC3)ccc2[nH]1 [Example 66, 2-(5-Cyclohexyl-1H-benzimidazol-2-yl)propan-2-amine]
The IC50 of the first is 3.5-fold lower: 284 nM for the first, 1000 nM for the second.

Going from N#Cc1ccc(-c2ccc3[nH]c([C@@H](N)C4CCCC4)nc3c2)cc1 [Example 32, 4-{2-[(S)-Amino(cyclopentyl)methyl]-1H-benzimidazol-5-yl}benzonitrile] to CC[C@@H](N)c1nc2cc(-c3ccc(C#N)cc3)ccc2[nH]1 [Example 53, 4-{2-[(1R)-1-aminopropyl]-1H-benzimidazol-5-yl}benzonitrile], the IC50 rises from 163 nM to 562 nM (3.4-fold).

Going from CO[C@H](C)[C@H](N)c1nc2cc(-c3ccc(C#N)cc3)ccc2[nH]1 [Example 92, 4-{2-[(1R,2R)-1-Amino-2-methoxypropyl]-1H-benzimidazol-5-yl}benzonitrile] to C[C@@H](O)[C@H](N)c1nc2cc(-c3ccc(C#N)cc3)ccc2[nH]1 [Example 40, 4-{2-[(1R,2R)-1-Amino-2-hydroxypropyl]-1H-benzimidazol-5-yl}benzonitrile], the IC50 rises from 17.5 nM to 77.1 nM (4.4-fold). The first is the more potent here.

First: CC(C)(N)c1nc2cc(-c3cccc(C#N)c3)ccc2[nH]1 [Example 72, 3-[2-(1-Amino-1-methylethyl)-1H-benzimidazol-5-yl]benzonitrile]
Second: CC(C)(N)c1nc2cc(-c3ccc(Cl)c(C#N)c3)ccc2[nH]1 [Example 71, 5-[2-(1-Amino-1-methylethyl)-1H-benzimidazol-5-yl]-2-chlorobenzonitrile]
The IC50 of the first is 1.6-fold lower: 2490 nM for the first, 3930 nM for the second.

Going from CC1(C)[C@@H]2[C@@H](c3nc4cc(-c5ccc(C#N)cc5)ccc4[nH]3)NC[C@@H]21 [Example 55, 4-{2-[(1R,2S,5S)-6,6-dimethyl-3-azabicyclo[3.1.0]hex-2-yl]-1H-benzimidazol-5-yl}benzonitrile] to N#Cc1ccc(-c2ccc3[nH]c([C@H]4NCC[C@@H]4O)nc3c2)cc1 [Example 50, 4-{2-[(2R,3S)-3-Hydroxypyrrolidin-2-yl]-1H-benzimidazol-5-yl}benzonitrile], the IC50 rises from 77.4 nM to 1840 nM (24-fold).

Compared with CCC(C)(C)c1ccc2[nH]c([C@H](C)N)nc2c1 [Example 35, (1S)-1-[5-(2-Methylbutan-2-yl)-1H-benzimidazol-2-yl]ethanamine], CCC(C)(C)c1ccc2[nH]c([C@@H](C)N)nc2c1 [Example 41, (1R)-1-[5-(2-Methylbutan-2-yl)-1H-benzimidazol-2-yl]ethanamine] is 3.8-fold higher in IC50: 171 nM for the first, 648 nM for the second.

CC(C)[C@H](N)c1nc2cc(C(C)(C)C)ccc2[nH]1 [Example 5, (1S)-1-(5-tert-Butyl-1H-benzimidazol-2-yl)-2-methylpropan-1-amine] and CC(C)[C@@H](N)c1nc2cc(C(C)(C)C)ccc2[nH]1 [Example 9, (1R)-1-(5-tert-Butyl-1H-benzimidazol-2-yl)-2-methylpropan-1-amine] are within 1.5-fold of each other in IC50: 364 nM for the first, 347 nM for the second.

Going from CCC(C)(C)c1ccc2[nH]c([C@@H](N)[C@@H](C)O)nc2c1 [Example 39, (1R,2R)-1-Amino-1-[5-(2-methylbutan-2-yl)-1H-benzimidazol-2-yl]propan-2-ol] to C[C@@H](C(=O)N(C)C)[C@H](N)c1nc2cc(C(C)(C)C)ccc2[nH]1 [Example 149, (2R,3S)-3-Amino-3-(5-tert-butyl-1H-benzimidazol-2-yl)-N,N,2-trimethylpropanamide], the IC50 rises from 54.2 nM to 303 nM (5.6-fold).

Going from C[C@@H](C(N)=O)[C@H](N)c1cn2cc(-c3ccc(C#N)cc3)ccc2n1 [Example 156, (2R,3S)-3-Amino-3-[6-(4-cyanophenyl)imidazo[1,2-a]pyridin-2-yl]-2-methylpropanamide] to CC[C@H](N)c1nc2cc(-c3ccc(C#N)cc3)ccc2[nH]1 [Example 81, 4-{2-[(1S)-1-Aminopropyl]-1H-benzimidazol-5-yl}benzonitrile], the IC50 rises from 54.6 nM to 82.8 nM (1.5-fold).

COC(C)(C)C(N)c1nc2cc(-c3ccc(C#N)cc3)ccc2[nH]1 (centres unmarked) [Example 142, 4-[2-(1-Amino-2-methoxy-2-methylpropyl)-1H-benzimidazol-5-yl]benzonitrile] and CC(C)(C)[C@H](N)c1nc2cc(-c3ccc(C#N)cc3)ccc2[nH]1 [Example 57, 4-{2-[(1S)-1-amino-2,2-dimethylpropyl]-1H-benzimidazol-5-yl}benzonitrile] are within 1.5-fold of each other in IC50: 1840 nM for the first, 2530 nM for the second.

Going from N#Cc1ccc(-c2ccc3[nH]c([C@@H](N)CC(N)=O)nc3c2)c(Cl)c1 [Example 119, (3S)-3-Amino-3-[5-(2-chloro-4-cyanophenyl)-1H-benzimidazol-2-yl]propanamide] to C[C@@H](O)[C@H](N)c1nc2cc(-c3ccc(C#N)cc3Cl)ccc2[nH]1 [Example 122, 4-{2-[(1R,2R)-1-Amino-2-hydroxypropyl]-1H-benzimidazol-6-yl}-3-chlorobenzonitrile], the IC50 falls from 671 nM to 326 nM (2.1-fold). The second is the more potent here.

Going from CC(C)(C)c1ccc2[nH]c([C@H](N)C(C)(C)C)nc2c1 [Example 15, (1R)-1-(5-tert-Butyl-1H-benzimidazol-2-yl)-2,2-dimethylpropan-1-amine] to CC(C)(C)c1ccc2[nH]c([C@@H](N)C3CCCC3)nc2c1 [Example 3, (S)-1-(5-tert-Butyl-1H-benzimidazol-2-yl)-1-cyclopentylmethanamine], the IC50 falls from 123 nM to 12.5 nM (9.8-fold).

First: CO[C@H](C)[C@H](N)c1nc2cc(CC(C)(C)C)c(F)cc2[nH]1 [Example 96, (1R,2R)-1-[5-(2,2-Dimethylpropyl)-5-fluoro-1H-benzimidazol-2-yl]-2-methoxypropan-1-amine]
Second: CO[C@H](C)[C@H](N)c1nc2cc(-c3ccc(C#N)cc3)c(F)cc2[nH]1 [Example 91, 4-{2-[(1R,2R)-1-Amino-2-methoxypropyl]-6-fluoro-1H-benzimidazol-5-yl}benzonitrile]
The IC50 of the first is 3.5-fold lower: 188 nM for the first, 666 nM for the second. The first is the more potent here.

Compared with C[C@@H](O)[C@H](N)c1nc2c(Cl)c(-c3ccc(C#N)c(F)c3)ccc2[nH]1 [Example 121, 4-{2-[(1R,2R)-1-Amino-2-hydroxypropyl]-4-chloro-1H-benzimidazol-5-yl}-2-fluorobenzonitrile], C[C@@H](C(N)=O)[C@H](N)c1nc2c(Cl)c(-c3ccc(C#N)c(F)c3)ccc2[nH]1 [Example 110, (2R,3S)-3-Amino-3-[4-chloro-5-(4-cyano-3-fluorophenyl)-1H-benzimidazol-2-yl]-2-methylpropanamide] is 13-fold lower in IC50: 3050 nM for the first, 233 nM for the second.

N#Cc1ccc(-c2ccc3[nH]c([C@H](N)c4ccccc4)nc3c2)cc1 [Example 36, 4-{2-[(R)-Amino(phenyl)methyl]-1H-benzimidazol-5-yl}benzonitrile] showed an IC50 of 227 nM.
